Laboratory results published in patent US20100111965A1, “COMBINATION THERAPY” (FUSION ANTIBODIES LIMITED, priority 2006, published 2010).

Test system: HCT 116 +/+
Experiment: Confocal microscopy of AREG expression in HCT116 after CPT-11
Assay type: cell-based, human
Settings: 24 h and 48 h, compared to untreated controls

CCc1c2c(nc3ccc(OC(=O)N4CCC(N5CCCCC5)CC4)cc13)-c1cc3c(c(=O)n1C2)COC(=O)[C@]3(O)CC [CPT-11, irinotecan]
AREG expression levels (confocal microscopy): increasing levels of expression at each time point
